Entries after “also recorded” stand apart in the source; their conditions may differ.
Key:
[1] = test system: C57BL/6 mice; test: TNF-α-induced lethal shock in mice; format: in vivo, mouse (C57BL/6)
Description: Female 10-weeks old C57BL/6 mice (Iffa Credo, France) were used in all in vivo TNF-induced lethal shock experiments.
Intravenous (i.v.) injection of 10-week-old C57BL/6 mice with 10 μg/mouse of mTNF-α causes death within 48 hours.
Ten weeks old C57BL/6 mice (5 to 6/group) were injected with different doses of wild type or mutant mouse TNF-α and the postinjection survival time was then assessed.

[2] = test system: Trypanosoma brucei brucei; test: In vitro trypanocidal assay, T. brucei brucei; format: cell-based
Description: (§1) The Trypanosoma brucei brucei AnTat 1.1 (EATRO 1125) pleomorphic bloodstream form was kindly provided to us by Dr. N. Van Meirvenne of the Institute for Tropical Medecine, Antwerp, Belgium, and the Trypanosoma brucei rhodesiense Trp 11 pleomorphic bloodstream form was kindly provided to us by Dr. E. Bajyana Songa (Dept. Molecular Biology, Free University of Brussels, Belgium)
(§2) After 5 h of incubation, the number of live (=moving) parasites was assessed (counting chamber) and compared the control wells in which only incubation medium was added to the trypanosomes. […] All treatments were done in quadruplicate and all reported in vitro trypanolysis experiments were repeated at least 3 times.

[3] = test system: 3LL-R Lewis lung carcinoma cells; test: Experimental metastasis inducing capacity on TNF resistant 3LL-R Lewis lung carcinoma cells; format: in vivo, mouse (C57bl/6); details: 17 days
Description: At this time, all mice were killed and the lung weight as well as the amount of cancer cell nodules in the lung was assessed.

[4] = test system: Trypanosoma brucei rhodesiense; test: In vitro trypanocidal assay, T. brucei rhodesiense; format: cell-based; details: 5 h
Description: as §1, §2

[5] = test system: human interleukin 8 (IL8); test: IL8 production by hMVECb cells; format: cell-based; details: 24 hours
[6] = In vivo half life of wild type and tip-deleted TNF-α (serum concentration); details: 1 μg/mouse i.p.
Description: An ELISA assay to measure the protein concentration of the wild type and tip-deleted or tip-mutated mouse TNF-α protein was developed. […] Subsequently, the plates were washed once with washing buffer (PBS, 0.05% Tween-20) and the remaining binding sites were blocked for at least one hour at 37° C. with 300 μl per well of PBS buffer supplemented with 1% BSA and 0.1% NaN3. Dilutions of sample or standard mTNF-α (0.01 to 10 ng/ml mTNF-α), made in 100 μl of PBS supplemented with 1% BSA, 1% rabbit serum, and 0.1% mertiolate are then added to each well and incubated for 2 hours at 37° C. […] Subsequently, the plates are washed four times with washing buffer wherafter 100 μl of straptavidin-horseradish peroxidase (Jackson Immunoresearch Labs), which has been diluted in sample diluent to a concentration of 100 ng/ml is added and incubated for 30 minutes at 37° C. […] The reaction is stopped by adding 100 μl per well of 2N H2SO4 wherafter the optical density is read at dual wavelength (450/595 nm).
Female 8 weeks old C57bL/6 mice (6 mice/group--Charles Rivers Deutshland) were injected intraperitoneally with 1 μg/mouse of either wild type mouse TNF-α or tip deleted TNF-α. Subsequently, the mice were bled 0.5, 5, 10, 15, 30, 60, 120, 180, or 240 minutes post-injection.

[7] = test system: human interleukin-6 (IL6); test: IL6 production by hMVECb cells; format: cell-based; details: 24 hours
Description: Subsequently, the IL6 concentration in the supernatant of the cells was assessed using a commercially available hIL6 ELISA kit (Medgenix, Belgium).

[8] = test system: L929 cells; test: L929 cell killing (cytotoxic/cytolytic/tumoricidal) assay; format: cell-based, mouse
Description: L929 fibrosarcoma cells were obtained from the Rega Institute, Leuven, Belgium.
After 18 h of culture at 37° C., viability of the cell cultures was assessed by dye uptake analysis. […] The plates were read spectrophotometrically at 577 nm with a Titertek multiscan MCC340 ELISA Reader (Flow Laboratories, McLean, Va.).

[9] = test system: LPS-induced shock; details: cited from earlier work
[10] = test system: L929 cells; details: cited from earlier work
[11] = mTNF-α 1000 pg/ml, +p55 (5 μg/ml)
[12] = mTNF-α 10000 pg/ml, +p55 (5 μg/ml)

Substance: mTNF-α: Purified recombinant mouse tumor necrosis factor-alpha, produced in E. coli
- lethal dose ([1]; C57BL/6 mice): 10 μg/mouse
- time to death ([1]; i.v. 10 μg/mouse): ≤ 48 h
- concentration at which 50% of the animals (parasites) are killed ([2]; T. brucei brucei, 5 h): 5000 pg/mL
- trypanocidal specific activity ([2]; in vitro trypanocidal assay): 2×10^5 U/mg of protein
- Trypanocidal activity (% lysis) ([2]; mTNF-α 100 pg/ml, +p55 (5 μg/ml soluble p55 hTNF-α receptor)): 25 ± 3%
- Trypanocidal activity (% lysis) ([2]; mTNF-α 100 pg/ml, -p55): 30 ± 2%
- Trypanocidal activity (% lysis) [2, 11]: 41 ± 4%
- Trypanocidal activity (% lysis) ([2]; mTNF-α 1000 pg/ml, -p55): 45 ± 5%
- Trypanocidal activity (% lysis) [2, 12]: 56 ± 3%
- Trypanocidal activity (% lysis) ([2]; mTNF-α 10000 pg/ml, -p55): 60 ± 4%
- general condition of mice [3]: all suffered from severe respiration problems
- mean lung weight ([3]; 5 μg/mouse i.p. 5 hours prior to 3LL-R cells): 1088.2 ± 315.7
- concentration at which 50% of the animals (parasites) are killed [4]: 5000 pg/mL
- IL8 concentration ([5]; 333 pg/ml, experiment 1): 1050 pg/mL
- IL8 concentration ([5]; 333 pg/ml, experiment 2): 1700 pg/mL
- IL8 concentration ([5]; 1000 pg/ml, experiment 1): 1680 pg/mL
- IL8 concentration ([5]; 1000 pg/ml, experiment 2): 1800 pg/mL
- IL8 concentration ([5]; 1666 pg/ml, experiment 1): 1200 pg/mL
- IL8 concentration ([5]; 1666 pg/ml, experiment 2): 1650 pg/mL
- concentration TNF-α ([6]; Experiment 1, 0.5 minutes): 1000 ng/mL
- concentration TNF-α ([6]; Experiment 1, 5 minutes): 880 ng/mL
- concentration TNF-α ([6]; Experiment 1, 10 minutes): 650 ng/mL
- concentration TNF-α ([6]; Experiment 1, 15 minutes): 500 ng/mL
- concentration TNF-α ([6]; Experiment 1, 30 minutes): 420 ng/mL
- concentration TNF-α ([6]; Experiment 1, 60 minutes): 320 ng/mL
- concentration TNF-α ([6]; Experiment 1, 120 minutes): 20 ng/mL
- concentration TNF-α ([6]; Experiment 1, 180 minutes): 10 ng/mL
- concentration TNF-α ([6]; Experiment 1, 240 minutes): 0 ng/mL
- concentration TNF-α ([6]; Experiment 2, 0.5 minutes): 1000 ng/mL
- concentration TNF-α ([6]; Experiment 2, 15 minutes): 550 ng/mL
- concentration TNF-α ([6]; Experiment 2, 30 minutes): 500 ng/mL
- concentration TNF-α ([6]; Experiment 2, 60 minutes): 480 ng/mL
- concentration TNF-α ([6]; Experiment 2, 120 minutes): 20 ng/mL
- concentration TNF-α ([6]; Experiment 2, 180 minutes): 0 ng/mL
- concentration TNF-α ([6]; Experiment 2, 240 minutes): 0 ng/mL
- IL6 concentration ([7]; 333 pg/ml, experiment 1): 1520 pg/mL
- IL6 concentration ([7]; 333 pg/ml, experiment 2): 1900 pg/mL
- IL6 concentration ([7]; 1000 pg/ml, experiment 1): 1250 pg/mL
- IL6 concentration ([7]; 1000 pg/ml, experiment 2): 1400 pg/mL
- IL6 concentration ([7]; 1666 pg/ml, experiment 1): 1220 pg/mL
- IL6 concentration ([7]; 1666 pg/ml, experiment 2): 1300 pg/mL
- specific activity ([8]; bioactivity on L929 cells, purified wild type): ~2×10^8 U/mg
- Tumoricidal activity (% lysis) ([8]; mTNF-α 100 pg/ml, +p55 (5 μg/ml)): 0 ± 1%
- Tumoricidal activity (% lysis) ([8]; mTNF-α 100 pg/ml, -p55): 40 ± 2%
- Tumoricidal activity (% lysis) [8, 11]: 0 ± 1%
- Tumoricidal activity (% lysis) ([8]; mTNF-α 1000 pg/ml, -p55): 92 ± 3%
- Tumoricidal activity (% lysis) [8, 12]: 93 ± 3%
- Tumoricidal activity (% lysis) ([8]; mTNF-α 10000 pg/ml, -p55): 98 ± 4%
- specific activity ([8]; purified recombinant, produced in E. coli, assay not stated): 10^8 units/mg

Substance: uromodulin: glycoprotein which binds TNF-α via its lectin-like domain
- effect on LPS-/TNF-/endotoxin-induced shock in vivo [9]: able to potently inhibit the TNF-induced shock in vivo; also recorded: able to potently inhibit the LPS-induced shock in vivo
- effect on TNF-α cytotoxic/tumoricidal activity [10]: does not block the tumoricidal activity of TNF-α

Source: patent US5891679A, “TNF-alpha muteins and a process for preparing them” (priority 1993, dated 1999)
